Laboratory results published in the supplement of paper PMC10307832.

How the values were obtained:
Assay in all cases: relative viability (nuclei count vs DMSO), 5 days (fraction); higher = more cells survive
AZ23 = compound: CC(C)Oc1cc(Nc2nc(N[C@@H](C)c3ccc(F)cn3)ncc2Cl)n[nH]1 [AZ23]
Method in brief: (§1)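 Only plates meeting two conditions passed: control CV below 25% and at least one doubling. Lung cancer cell lines, kept overnight at 37 °C in 1536-well plates, were pinned with five library-drug doses (not always all listed) √10 apart on vehicle-anchored plates and grown 5 days without medium change. A one-step fix, permeabilisation and Hoechst stain preceded 4× imaging and MetaXpress nuclear counting. Viability equals treated-well nuclei divided by vehicle-well nuclei, as the median over plates.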

HG-5-88-01 = compound: CC(C)S(=O)(=O)C1=CC=CC=C1NC2=NC(=NC(=C2Cl)N)NC3=C(C=C(C=C3)N4CCC(CC4)C(=O)N)OC [HG-5-88-01]
Method in brief: as §1

Embelin = compound: CCCCCCCCCCCC1=C(O)C(=O)C=C(O)C1=O [Embelin]
Method in brief: as §1

[1] = compound: C[C@@H]1CN(CC(=O)Nc2ccc3c(c2)Cc2cccc(-c4cc(=O)cc(N5CCOCC5)o4)c2S3)C[C@H](C)O1
Method in brief: as §1

Vatalanib = compound: Clc1ccc(Nc2nnc(Cc3ccncc3)c3ccccc23)cc1 [Vatalanib]
Method in brief: as §1

Row | Cell Line | relative viability (AZ23; 0.01 µM) | relative viability (AZ23; 0.03162 µM) | relative viability (AZ23; 0.3162 µM) | relative viability (HG-5-88-01; 0.04 µM) | relative viability (HG-5-88-01; 0.1265 µM) | relative viability (HG-5-88-01; 0.4 µM) | relative viability (HG-5-88-01; 1.265 µM) | relative viability (HG-5-88-01; 4 µM) | relative viability (Embelin; 0.08 µM) | relative viability (Embelin; 0.8 µM) | relative viability (Embelin; 2.53 µM) | relative viability (Embelin; 8 µM) | relative viability ([1]; 0.04 µM) | relative viability ([1]; 0.1265 µM) | relative viability ([1]; 0.4 µM) | relative viability ([1]; 4 µM) | relative viability (Vatalanib; 0.04 µM) | relative viability (Vatalanib; 0.1265 µM) | relative viability (Vatalanib; 0.4 µM) | relative viability (Vatalanib; 1.265 µM) | relative viability (Vatalanib; 4 µM)
1 | 201T | 1.05 | 1.06 | 1.07 | 1.01 | 0.941 | 0.951 | 1.03 | 1.03 | 0.985 | 1.02 | 1.11 | 0.966 | 0.996 | 0.944 | 0.992 | 0.961 | 0.975 | 0.975 | 1.05 | 0.929 | 0.953
2 | A549 | 1.23 | 1.12 | 0.922 | 0.997 | 0.954 | 0.909 | 0.726 | 0.75 | 0.992 | 1.06 | 1.12 | 0.97 | 0.958 | 0.922 | 0.918 | 0.806 | 1.01 | 0.944 | 0.998 | 0.928 | 0.929
3 | A-427 | 0.921 | 1.07 | 1.15 | 0.94 | 1.02 | 1.02 | 1.11 | 0.534 | 1.06 | 1.03 | 1.04 | 0.943 | 0.956 | 0.945 | 1.06 | 0.938 | 1.03 | 0.97 | 0.983 | 0.863 | 0.989
4 | ABC-1 | 0.82 | 1.18 | 1.02 | 0.825 | 1 | 0.732 | 0.75 | 0.778 | 0.866 | 1.11 | 0.893 | 1.03 |  | 1.11 | 0.983 | 1.12 | 0.977 | 0.647 | 0.803 | 0.89 | 0.851
5 | BEN | 1.05 | 1.12 | 0.994 | 0.866 | 1.07 | 0.884 | 0.873 | 1.05 | 1.04 | 1.14 | 1.1 | 1.02 | 0.929 | 0.881 | 1.12 | 0.955 | 0.954 | 0.904 | 0.951 | 0.882 | 0.946
6 | CAL-12T | 0.692 | 1.09 | 0.932 | 0.959 | 1.09 | 0.952 | 0.746 | 0.459 | 1.01 | 1.18 | 0.855 | 0.986 | 1.04 | 1.01 | 1.06 | 0.549 | 0.978 | 0.946 | 0.988 | 0.867 | 0.885
7 | COR-L23 | 1.03 | 1.11 | 1.15 | 1.05 | 1.08 | 0.964 | 0.952 | 0.867 | 1 | 1.18 | 1.06 | 1.16 | 1.03 | 1.07 | 1.06 | 0.877 | 0.971 | 0.977 | 1.13 | 1.01 | 0.994
8 | COR-L 105 | 0.843 | 1.1 | 1.04 | 0.825 | 0.969 | 0.883 | 0.726 | 0.685 | 1.04 | 1.1 | 0.89 | 0.981 | 0.921 | 1.01 | 1.05 | 0.805 | 0.901 | 0.895 | 1.03 | 0.892 | 0.835
9 | Calu-6 |  | 1.09 | 1.01 | 1.04 | 0.965 | 0.946 | 0.948 | 0.854 | 1.01 | 1.09 | 1.07 | 1.07 | 1.04 | 0.951 | 1.03 | 0.74 | 1.06 | 0.958 | 1.06 | 0.949 | 0.976
10 | ChaGo-K-1 | 1.2 | 1.09 | 1.04 | 1.02 | 1.03 | 0.936 | 1.03 | 0.841 | 1.06 | 1.01 | 1.05 | 0.983 | 0.826 | 0.961 | 0.967 | 0.979 | 0.87 | 0.983 | 1.01 | 0.962 | 1.06
11 | EBC-1 | 1.04 | 1.12 | 0.931 | 1.02 | 0.851 | 0.98 | 0.933 | 0.901 | 1 | 1.11 | 1.02 | 0.979 | 1.02 | 0.952 | 0.712 | 0.535 | 1.06 | 0.895 | 1.06 | 0.955 | 0.896
12 | EKVX | 0.932 | 1.11 | 0.976 | 0.923 | 1.02 | 0.875 |  | 0.934 | 0.966 | 1.02 | 0.964 | 1.03 | 0.975 | 0.971 | 0.898 | 0.882 | 0.934 | 0.849 | 0.975 | 0.818 | 0.871
13 | EMC-BAC-2 | 0.886 | 1.08 | 0.986 | 0.977 | 1.04 | 0.85 | 0.93 | 0.887 | 1.01 | 1.11 | 0.83 | 0.83 | 0.95 | 0.985 | 0.957 | 1.02 | 0.966 | 0.974 | 0.974 |  | 0.949
14 | EPLC-272H | 0.674 | 1.11 | 0.745 | 0.985 | 0.894 | 0.984 | 0.753 | 0.0869 | 0.969 | 1.18 | 0.962 | 0.806 | 0.982 | 1 | 1.09 | 0.932 | 0.958 | 0.906 | 1.13 | 0.889 | 0.89
15 | H3255 | 0.858 | 1.21 | 0.999 | 1.04 | 1.05 | 0.838 |  | 0.871 | 0.963 | 1.05 | 0.875 | 1.07 | 0.917 | 0.947 | 0.905 | 0.878 | 0.921 | 0.926 | 0.841 | 0.781 | 0.978
16 | HARA | 0.821 | 1.1 | 1.07 | 1.04 | 0.979 | 0.923 | 0.598 | 0.805 | 0.963 | 1.12 | 1.05 | 0.929 | 0.931 | 0.908 | 0.873 | 0.911 | 0.88 | 0.99 | 1.12 | 0.878 | 1.03
17 | HCC-15 | 1.21 | 1.02 | 1.07 | 1.07 | 1.02 | 0.901 | 1 | 0.743 | 1.01 | 1.09 | 1.01 | 0.964 | 1.09 | 0.898 | 0.97 | 0.903 | 1.07 | 1.04 | 1.06 | 0.983 | 1.08
18 | HCC-44 | 0.999 | 1.06 | 1.01 | 1.04 | 0.972 | 0.914 | 0.927 | 0.567 | 0.886 | 1.01 | 1.01 | 0.869 | 0.934 | 0.976 | 0.919 | 0.923 | 0.951 | 0.905 | 0.943 | 0.963 | 0.97
19 | HCC-78 | 0.837 | 1.01 | 0.589 | 0.836 | 0.736 | 0.476 | 0.378 | 0.417 | 1.02 | 1.02 | 0.977 | 1.07 | 0.883 | 0.922 | 0.821 | 0.923 | 0.95 | 0.862 | 0.972 | 0.82 | 0.835
20 | HCC-366 | 1.04 | 1.03 | 1.03 | 0.998 | 1.01 | 0.987 | 0.987 | 1.05 | 1.01 | 1.03 | 1.09 | 1.06 | 1.01 | 0.987 | 1.08 | 0.925 | 1.01 | 0.881 | 1.01 | 0.975 | 0.978
21 | HCC-827 | 1.06 | 1.13 | 1.08 | 1.06 | 1.05 | 1.06 | 1.03 | 0.615 | 1.03 | 1.11 | 1.09 | 1.09 | 1.05 | 1.04 | 1.08 | 1.07 | 1.02 | 0.949 | 0.924 | 1.04 | 0.996
22 | HOP-62 | 1.13 | 1.11 | 1.12 | 1.03 | 1.06 | 0.92 | 1.02 | 1.02 | 1.02 | 1.07 | 1.1 | 0.984 | 0.978 | 0.991 | 0.973 | 0.988 | 0.954 | 0.957 | 1.07 | 0.949 | 1.01
23 | IA-LM | 0.91 | 1.12 | 1.07 | 0.959 | 0.984 | 0.85 | 0.715 | 0.704 | 0.932 | 0.981 | 1 | 0.689 | 0.911 | 0.938 | 0.946 | 0.574 | 0.977 | 0.898 | 0.955 | 0.909 | 0.898
24 | LC-2-ad | 1.17 | 1.04 | 1.02 | 1.08 | 0.998 | 1.01 | 0.948 | 0.802 | 0.986 | 1.14 | 1.09 | 0.95 | 1.07 | 0.969 | 0.993 | 0.903 | 1.02 | 0.861 | 0.793 | 0.963 | 0.948
25 | LCLC-97TM1 | 0.998 | 0.915 | 0.873 | 0.98 | 0.922 | 0.807 | 0.838 | 0.291 | 0.906 | 1.15 | 1.17 | 0.971 |  | 0.965 | 0.853 | 1.04 | 0.875 | 0.84 | 0.977 | 0.838 | 1.03
26 | LCLC-103H | 1.04 | 0.993 | 1.08 | 1.04 | 1.04 | 0.86 | 0.96 | 0.657 | 0.999 | 1.06 | 1.04 | 0.8 | 1.01 | 0.903 | 0.793 | 0.926 | 1.05 | 0.932 | 1.01 | 0.993 | 0.977
